Results reported in patent US20070299092A1 (Wyeth, priority 2004, published 2007).
Values joined by “and” are separate entries in the source; they are usually repeats but may differ in a detail not shown here. Identical values can stand only once. Like-named read-outs stand apart in the source and are kept apart here.

Assays:
[1] = molecular target: T1, human KDR (VEGF-receptor-2) (Homo sapiens, UniProt P35968); experiment: KDR kinase enzyme assay (DELFIA, KDR-IC-Flag, poly(Glu4-Tyr) peptide); assay type: biochemical; conditions: for inhibition at 0.1 µM: Concentration 100 nM; for inhibition at 1 µM: Concentration 1000 nM
T1 construct: beginning at Met-806; (5′-ATG GAT CCA GAT GM CTC CCA TTG) and ending at Val-1356; made in house

[2] = molecular target: KDR (Homo sapiens, UniProt P35968); experiment: cell-based; conditions: read-out: % Inhibition of KDR kinase autophosphorylation in KDR15 cells, compound conc. 1000 nM
[3] = test system: Human umbilical vein endothelial cells (HUVEC); experiment: HUVEC proliferation assay, VEGF-dependent growth ([3H]-thymidine incorporation); assay type: cell-based; conditions: for inhibition at 0.1 µM / inhibition at 10 µM / inhibition at 1 µM: Homo sapiens, HUVEC
Description: Cells were plated into 96-well dishes (4000 cells per well) and allowed to attach overnight. HUVEC were rinsed one time with 100 μl of EBMc-V (EBM supplemented with all above components except serum or VEGF), then 50 ul of EBMc-V was added to cells. Compounds were prepared at 200× stocks in DMSO, diluted into EBMc-V media as 4× stocks, then 50 ul added to appropriate wells. Finally, 100 μl of 2×VEGF (100 ng/ml prepared in EBMc-V; final 50 ng/ml VEGF) was added to all VEGF-treated wells. EBMc-V (no VEGF) was added to negative control wells. Parallel compound-treated plates were prepared except that 100 μl of EGM2 media containing 2% serum but lacking VEGF (EGMc-V) was added. Cells were incubated for 4-5 days at 37° C.
DNA synthesis was assessed by thymidine incorporation. Cells were incubated for 5 hours in 1 μCi of [^3H]-thymidine (PerkinElmer) by addition of 10 ul of 0.1 μCi/ul thymidine prepared in PBS to each well. After incubation, media was aspirated and the cells trypsinized and collected onto a mat using a vacuum-based Micro Cell Harvester (Skatron). [^3H]-thymidine was counted in a liquid scintillation counter. Compounds evaluated for ability to inhibit VEGF-dependent growth of human umbilical vein endothelial cells (HUVEC).

[4] = ATP conc. 10 μM, read-out: % Inhibition
[5] = ATP conc. 1000 μM, read-out: % Inhibition

T1 sequence (P35968 806-1356): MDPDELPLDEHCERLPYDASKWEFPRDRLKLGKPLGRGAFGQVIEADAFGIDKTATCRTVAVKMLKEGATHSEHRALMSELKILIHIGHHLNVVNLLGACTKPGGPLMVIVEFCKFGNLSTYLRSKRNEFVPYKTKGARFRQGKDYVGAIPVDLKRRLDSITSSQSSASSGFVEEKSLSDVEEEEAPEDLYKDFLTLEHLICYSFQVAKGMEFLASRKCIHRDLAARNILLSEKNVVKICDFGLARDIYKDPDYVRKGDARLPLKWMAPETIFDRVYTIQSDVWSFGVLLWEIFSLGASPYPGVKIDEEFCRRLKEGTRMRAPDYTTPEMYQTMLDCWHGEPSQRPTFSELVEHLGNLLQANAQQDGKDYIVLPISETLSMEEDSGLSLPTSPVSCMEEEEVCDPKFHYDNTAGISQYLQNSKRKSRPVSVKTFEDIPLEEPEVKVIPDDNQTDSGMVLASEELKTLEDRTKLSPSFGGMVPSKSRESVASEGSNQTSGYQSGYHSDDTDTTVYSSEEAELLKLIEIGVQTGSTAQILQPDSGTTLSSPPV
KDR, sequence (P35968 20-1356): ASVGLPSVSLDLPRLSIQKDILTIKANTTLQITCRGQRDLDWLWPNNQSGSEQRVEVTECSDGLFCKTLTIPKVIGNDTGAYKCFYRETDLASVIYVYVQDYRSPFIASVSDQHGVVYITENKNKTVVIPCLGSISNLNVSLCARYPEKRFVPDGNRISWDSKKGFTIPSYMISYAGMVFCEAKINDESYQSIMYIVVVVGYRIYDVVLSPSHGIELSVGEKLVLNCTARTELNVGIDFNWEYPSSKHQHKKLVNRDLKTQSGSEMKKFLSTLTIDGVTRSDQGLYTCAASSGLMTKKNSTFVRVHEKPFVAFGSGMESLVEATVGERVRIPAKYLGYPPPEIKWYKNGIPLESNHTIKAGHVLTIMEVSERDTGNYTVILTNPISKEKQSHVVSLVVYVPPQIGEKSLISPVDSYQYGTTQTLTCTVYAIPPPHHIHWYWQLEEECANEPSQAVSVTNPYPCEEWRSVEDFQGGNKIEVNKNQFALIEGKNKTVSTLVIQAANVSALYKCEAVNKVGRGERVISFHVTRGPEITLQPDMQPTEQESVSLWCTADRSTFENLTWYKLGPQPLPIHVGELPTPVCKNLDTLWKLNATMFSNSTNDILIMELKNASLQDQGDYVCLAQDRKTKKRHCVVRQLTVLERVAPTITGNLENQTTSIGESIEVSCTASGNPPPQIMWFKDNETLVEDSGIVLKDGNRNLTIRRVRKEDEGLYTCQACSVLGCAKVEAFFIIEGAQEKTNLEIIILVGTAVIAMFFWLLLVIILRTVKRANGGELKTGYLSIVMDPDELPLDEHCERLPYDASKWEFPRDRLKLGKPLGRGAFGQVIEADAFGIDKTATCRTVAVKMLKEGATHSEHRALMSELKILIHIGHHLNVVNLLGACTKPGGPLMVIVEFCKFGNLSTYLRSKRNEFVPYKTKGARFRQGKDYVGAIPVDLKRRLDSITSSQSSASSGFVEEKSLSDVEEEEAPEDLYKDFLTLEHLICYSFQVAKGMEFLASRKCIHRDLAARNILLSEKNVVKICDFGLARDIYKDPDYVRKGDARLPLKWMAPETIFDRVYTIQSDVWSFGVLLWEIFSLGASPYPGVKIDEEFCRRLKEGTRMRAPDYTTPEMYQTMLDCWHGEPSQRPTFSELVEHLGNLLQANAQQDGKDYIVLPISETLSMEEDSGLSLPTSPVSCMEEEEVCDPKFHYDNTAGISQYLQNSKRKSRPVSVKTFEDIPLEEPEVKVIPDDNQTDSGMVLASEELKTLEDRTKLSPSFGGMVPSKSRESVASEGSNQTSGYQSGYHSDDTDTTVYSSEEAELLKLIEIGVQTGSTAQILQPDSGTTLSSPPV

COc1cc2ncnc(NC3=CC(=O)C4(C)OC4C3=O)c2cc1OC (stereo not shown) [Example 5, 4-[(6,7-dimethoxy-4-quinazolinyl)amino]-1-methyl-7-oxabicyclo[4.1.0]hept-3-ene-2,5-dione]
inhibition at 0.1 µM [1, 4]: 18%
inhibition at 1 µM [1, 4]: 49%
inhibition at 1 µM [1, 5]: 60%
inhibition at 1 µM [2]: 56%

COCCOc1cc2ncnc(NC3=CC(=O)C(C)=CC3=O)c2cc1OC [Example 15, 2-{[6-methoxy-7-(2-methoxyethoxy)-4-quinazolinyl]amino}-5-methylbenzo-1,4-quinone]
inhibition at 0.1 µM ([3]; conc. 100 nM): 24%
inhibition at 10 µM ([3]; conc. 10000 nM): 96%
% Inhibition of VEGF-dependent growth of HUVEC ([3]; conc. 100 nM): 40% and 42%
% Inhibition of VEGF-dependent growth of HUVEC ([3]; conc. 1000 nM): 86% and 95% and 67%
% Inhibition of VEGF-dependent growth of HUVEC ([3]; conc. 10000 nM): 98% and 97%

COCCOc1cc2ncnc(NC3=C(Sc4ccccc4)C(=O)C=C(OC)C3=O)c2cc1OC [Example 18, 5-methoxy-3-{[6-methoxy-7-(2-methoxyethoxy)quinazolin-4-yl]amino}-2-(phenylthio)benzo-1,4-quinone]
inhibition at 0.1 µM [1, 4]: 13%
inhibition at 1 µM [1, 4]: 2%
inhibition at 1 µM [1, 5]: -30%
inhibition at 1 µM [2]: 27%

COCCOc1cc2ncnc(NC3=C(SCc4ccccc4)C(=O)C=C(OC)C3=O)c2cc1OC [Example 19, 2-(benzylthio)-5-methoxy-3-{[6-methoxy-7-(2-methoxyethoxy)quinazolin-4-yl]amino}benzo-1,4-quinone]
inhibition at 0.1 µM [1, 4]: 41%
inhibition at 1 µM [1, 4]: 88%
inhibition at 1 µM [1, 5]: 88%
inhibition at 1 µM [2]: -10%

COCCOc1cc2ncnc(NC3=CC(=O)C(Sc4ccccc4)=CC3=O)c2cc1OC [Example 24, 2-{[6-methoxy-7-(2-methoxyethoxy)quinazolin-4-yl]amino}-5-(phenylthio)benzo-1,4-quinone]
inhibition at 0.1 µM [1, 4]: 96%
inhibition at 1 µM [1, 4]: 92%
inhibition at 1 µM [1, 5]: 96%
inhibition at 1 µM [2]: 0%

COCCOc1cc2ncnc(NC3=CC(=O)C(Cl)=CC3=O)c2cc1OC [Example 25, 2-chloro-5-{[6-methoxy-7-(2-methoxyethoxy)quinazolin-4-yl]amino}benzo-1,4-quinone]
inhibition at 0.1 µM ([3]; conc. 100 nM): 29%
inhibition at 1 µM ([3]; conc. 1000 nM): 51%
inhibition at 10 µM ([3]; conc. 10000 nM): 81%

COCCOc1cc2ncnc(NC3=CC(=O)C(Oc4cccc(C#N)c4)=CC3=O)c2cc1OC [Example 27, 3-[(4-{[6-methoxy-7-(2-methoxyethoxy)quinazolin-4-yl]amino}-3,6-dioxocyclohexa-1,4-dien-1-yl)oxy]benzonitrile]
IC50 ([1]; ATP conc. 10 μM): 0.0344 µM
inhibition at 0.1 µM [1, 4]: 63%
inhibition at 1 µM [1, 4]: 96%
inhibition at 1 µM [1, 5]: 98%
inhibition at 1 µM [2]: 25%

COCCOc1cc2ncnc(NC3=CC(=O)C(Oc4cccc(OC)c4)=CC3=O)c2cc1OC [Example 28, 2-{[6-methoxy-7-(2-methoxyethoxy)quinazolin-4-yl]amino}-5-(3-methoxyphenoxy)benzo-1,4-quinone]
IC50 ([1]; ATP conc. 10 μM): 0.0121 µM
inhibition at 0.1 µM ([1]; ATP conc. 10 μM): 83%
inhibition at 1 µM ([1]; ATP conc. 10 μM): 96%
inhibition at 1 µM ([1]; ATP conc. 1000 μM): 98%
inhibition at 1 µM [2]: 35%

COCCOc1cc2ncnc(NC3=CC(=O)C(Oc4ccc(Oc5ccccc5)cc4)=CC3=O)c2cc1OC [Example 29, 2-{[6-methoxy-7-(2-methoxyethoxy)quinazolin-4-yl]amino}-5-(4-phenoxyphenoxy)benzo-1,4-quinone]
IC50 ([1]; ATP conc. 10 μM): 0.0377 µM
inhibition at 0.1 µM ([1]; ATP conc. 10 μM): 62%
inhibition at 1 µM ([1]; ATP conc. 10 μM): 92%
inhibition at 1 µM ([1]; ATP conc. 1000 μM): 95%
inhibition at 1 µM [2]: 30%

COCCOc1cc2ncnc(NC3=CC(=O)C(Oc4ccc(F)cc4)=CC3=O)c2cc1OC [Example 30, 2-(4-fluorophenoxy)-5-{[6-methoxy-7-(2-methoxyethoxy)quinazolin-4-yl]amino}benzo-1,4-quinone]
inhibition at 0.1 µM ([1]; ATP conc. 10 μM): 83%
inhibition at 1 µM ([1]; ATP conc. 10 μM): 96%
inhibition at 1 µM ([1]; ATP conc. 1000 μM): 98%

COCCOc1cc2ncnc(NC3=CC(=O)C(Oc4ccc(C#N)cc4)=CC3=O)c2cc1OC [Example 31, 4-[(4-{[6-methoxy-7-(2-methoxyethoxy)quinazolin-4-yl]amino}-3,6-dioxocyclohexa-1,4-dien-1-yl)oxy]benzonitrile]
inhibition at 0.1 µM ([1]; ATP conc. 10 μM): 82%
inhibition at 1 µM ([1]; ATP conc. 10 μM): 96%
inhibition at 1 µM ([1]; ATP conc. 1000 μM): 98%

COCCOc1cc2ncnc(NC3=CC(=O)C(Oc4ccc(OC)cc4)=CC3=O)c2cc1OC [Example 32, 2-{[6-methoxy-7-(2-methoxyethoxy)quinazolin-4-yl]amino}-5-(4-methoxyphenoxy)benzo-1,4-quinone]
inhibition at 0.1 µM ([3]; conc. 100 nM): 10%
inhibition at 1 µM ([3]; conc. 1000 nM): 41%
inhibition at 10 µM ([3]; conc. 10000 nM): 98%
IC50 ([1]; ATP conc. 10 μM): 0.0048 µM
inhibition at 0.1 µM ([1]; ATP conc. 10 μM): 88%
inhibition at 1 µM ([1]; ATP conc. 10 μM): 96%
inhibition at 1 µM ([1]; ATP conc. 1000 μM): 98%

COCCOc1cc2ncnc(NC3=CC(=O)C(Oc4ccc(C(F)(F)F)cc4)=CC3=O)c2cc1OC [Example 36, 2-{[6-methoxy-7-(2-methoxyethoxy)quinazolin-4-yl]amino}-5-[4-(trifluoromethyl)phenoxy]benzo-1,4-quinone]
inhibition at 0.1 µM [1, 4]: 79%
inhibition at 1 µM [1, 4]: 96%
inhibition at 1 µM [1, 5]: 98%

COCCOc1cc2ncnc(NC3=CC(=O)C(Oc4cccc(C(F)(F)F)c4)=CC3=O)c2cc1OC [Example 43, 2-{[6-methoxy-7-(2-methoxyethoxy)quinazolin-4-yl]amino}-5-[3-(trifluoromethyl)phenoxy]benzo-1,4-quinone]
inhibition at 1 µM ([3]; conc. 1000 nM): 36%
inhibition at 10 µM ([3]; conc. 10000 nM): 88%
IC50 ([1]; ATP conc. 10 μM): 0.121 µM
inhibition at 0.1 µM [1, 4]: 45%
inhibition at 1 µM [1, 4]: 89%

COCCOc1cc2ncnc(NC3=CC(=O)C(Oc4ccc(C(=O)/C=C/c5ccccc5)cc4)=CC3=O)c2cc1OC [Example 55, 2-{[6-methoxy-7-(2-methoxyethoxy)quinazolin-4-yl]amino}-5-{4-[(2E)-3-phenylprop-2-enoyl]phenoxy}benzo-1,4-quinone]
inhibition at 0.1 µM ([3]; conc. 100 nM): 7%
inhibition at 1 µM ([3]; conc. 1000 nM): 61%
inhibition at 10 µM ([3]; conc. 10000 nM): 99%
IC50 ([1]; ATP conc. 10 μM): 0.0054 µM
inhibition at 0.1 µM [1, 4]: 90%
inhibition at 1 µM [1, 4]: 93%

COCCOc1cc2ncnc(NC3=CC(=O)C(Oc4ccc(C(C)(C)c5ccccc5)cc4)=CC3=O)c2cc1OC [Example 56, 2-{[6-methoxy-7-(2-methoxyethoxy)quinazolin-4-yl]amino}-5-[4-(1-methyl-1-phenylethyl)phenoxy]benzo-1,4-quinone]
IC50 ([1]; ATP conc. 10 μM): 0.0622 µM
inhibition at 0.1 µM [1, 4]: 69%
inhibition at 1 µM [1, 4]: 81%

COCCOc1cc2ncc(C#N)c(NC3=CC(=O)C(Oc4ccccc4)=CC3=O)c2cc1OC [Example 71, 4-[(3,6-dioxo-4-phenoxycyclohexa-1,4-dien-1-yl)amino]-6-methoxy-7-(2-methoxyethoxy)quinoline-3-carbonitrile]
IC50 ([1]; ATP conc. 10 μM): 0.273 µM
inhibition at 0.1 µM [1, 4]: 41%
inhibition at 1 µM [1, 4]: 85%
inhibition at 1 µM [1, 5]: 58%

COCCOc1cc2ncnc(NC3=CC(=O)C(N(C)c4ccccc4)=CC3=O)c2cc1OC [Example 76, 2-{[6-methoxy-7-(2-methoxyethoxy)quinazolin-4-yl]amino}-5-[methyl(phenyl)amino]benzo-1,4-quinone]
inhibition at 0.1 µM ([3]; conc. 100 nM): -30%
inhibition at 1 µM ([3]; conc. 1000 nM): 63%
inhibition at 10 µM ([3]; conc. 10000 nM): 96%

COCCOc1cc2ncnc(NC3=CC(=O)C(OC)=CC3=O)c2cc1OC [Example 105, 2-(methoxy)-5-{[6-methoxy-7-(2-methoxyethoxy)quinazolin-4-yl]amino}benzo-1,4-quinone]
inhibition at 0.1 µM ([3]; conc. 100 nM): -1%
inhibition at 1 µM ([3]; conc. 1000 nM): 36%
inhibition at 10 µM ([3]; conc. 10000 nM): 88%
